Laboratory results reported in ChEMBL document CHEMBL1201862, “PubChem BioAssay data set” (2004).
Values joined by “and” are separate entries in the source; they are usually repeats but may differ in a detail not shown here. Equal entries are not always repeated. Structures can show the parent of a compound that is named as a salt.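 A five-concentration, 48-hour dose response in 96-well plates underlies each endpoint, interpolated linearly between surrounding concentrations. At the GI50, growth is halved.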 Active and inactive are the calls of the source. No stated cut-off is given here; in the data, active = GI50 up to about 1.1 µM and inactive = higher.

How the values were obtained:
Assay in all cases: DTP human tumour cell line panel, 48 h
M19-MEL = test system: M19-MEL
SF-539 = test system: SF-539
RPMI-8226 = test system: RPMI-8226
OVCAR-4 = test system: OVCAR-4
NCI-H522 = test system: NCI-H522
NCI-H23 = test system: NCI-H23
OVCAR-5 = test system: OVCAR-5
UACC-62 = test system: UACC-62
MOLT-4 = test system: MOLT-4
SF-295 = test system: SF-295
UO-31 = test system: UO-31
A498 = test system: A498
SW-620 = test system: SW-620
SR = test system: SR
KM-20L2 = test system: KM-20L2
NCI-H460 = test system: NCI-H460
OVCAR-8 = test system: OVCAR-8
SNB-78 = test system: SNB-78
UACC-257 = test system: UACC-257
SNB-19 = test system: SNB-19
HCT-116 = test system: HCT-116
NCI-H226 = test system: NCI-H226
DMS-114 = test system: DMS-114
EKVX = test system: EKVX
SK-MEL-28 = test system: SK-MEL-28
LXFL 529 = test system: LXFL 529
CAKI-1 = test system: CAKI-1
SF-268 = test system: SF-268
U-251 = test system: U-251
A549 = test system: A549
NCI/ADR-RES = test system: NCI/ADR-RES
HOP-92 = test system: HOP-92
COLO 205 = test system: COLO 205
MDA-N = test system: MDA-N
SNB-75 = test system: SNB-75
SK-MEL-5 = test system: SK-MEL-5
HL-60 = test system: HL-60
Hs-578T = test system: Hs-578T
MDA-MB-231 = test system: MDA-MB-231
DLD-1 = test system: DLD-1
T47D = test system: T47D
IGROV-1 = test system: IGROV-1
MDA-MB-435 = test system: MDA-MB-435
TK-10 = test system: TK-10
PC-3 = test system: PC-3
Malme-3M = test system: Malme-3M
HT-29 = test system: HT-29
SK-OV-3 = test system: SK-OV-3
DU-145 = test system: DU-145
ACHN = test system: ACHN
CCRF-CEM = test system: CCRF-CEM
LOX IMVI = test system: LOX IMVI
SN12C = test system: SN12C
DMS-273 = test system: DMS-273
MCF7 = test system: MCF7
SK-MEL-2 = test system: SK-MEL-2
HCT-15 = test system: HCT-15
BT-549 = test system: BT-549
KM12 = test system: KM12
K562 = test system: K562
786-0 = test system: 786-0
RXF 393 = test system: RXF 393

`CCN(CC)CCNc1ccc(CO)c2sc3ccccc3c(=O)c12` [HYCANTHONE] was tested, and the GI50 (M19-MEL) was 13 µM (inactive), the GI50 (SF-539) was 11.2 µM (inactive) and the GI50 (RPMI-8226) was 10.8 µM (inactive). The GI50 (OVCAR-4) was 5.37 µM (inactive), the GI50 (NCI-H522) was 4.04 µM (inactive) and the GI50 (NCI-H23) was > 10 µM (inactive). The GI50 (OVCAR-5) was 12.5 µM (inactive), the GI50 (UACC-62) was 19.5 µM (inactive) and the GI50 (MOLT-4) was 2.79 µM (inactive). For the same molecule, the GI50 (SF-295) was 7.14 µM (inactive), the GI50 (UO-31) was 6.58 µM (inactive) and the GI50 (A498) was 8.22 µM (inactive). For the same molecule, the GI50 (SW-620) was 5.48 µM (inactive), the GI50 (SR) was 3.18 µM (inactive) and the GI50 (KM-20L2) was 5.37 µM (inactive). The GI50 (NCI-H460) was 4.04 µM (inactive), the GI50 (OVCAR-8) was 6.37 µM (inactive) and the GI50 (SNB-78) was 12.7 µM (inactive). For the same molecule, the GI50 (UACC-257) was 15.8 µM (inactive), the GI50 (SNB-19) was 9.51 µM (inactive) and the GI50 (HCT-116) was 4.8 µM (inactive). The GI50 (NCI-H226) was 13.9 µM (inactive), the GI50 (DMS-114) was 11.5 µM (inactive) and the GI50 (EKVX) was 13.7 µM (inactive). For the same molecule, the GI50 (SK-MEL-28) was 16.8 µM (inactive), the GI50 (LXFL 529) was 12.7 µM (inactive) and the GI50 (CAKI-1) was 5.92 µM (inactive). For the same molecule, the GI50 (SF-268) was 8.89 µM (inactive), the GI50 (U-251) was 10.5 µM (inactive) and the GI50 (A549) was 6.85 µM (inactive).

For `CN(C)CCCN1c2ccccc2Sc2ccc(C(F)(F)F)cc21` [TRIFLUPROMAZINE HYDROCHLORIDE], the GI50 (M19-MEL) was 17.5 µM (inactive), the GI50 (SF-539) was 15.2 µM (inactive) and 19.1 µM (inactive) and the GI50 (NCI/ADR-RES) was 17.2 µM (inactive). The GI50 (RPMI-8226) was 21.2 µM (inactive) and 14.9 µM (inactive), the GI50 (OVCAR-4) was 14.8 µM (inactive) and the GI50 (HOP-92) was 12.3 µM (inactive). The GI50 (COLO 205) was 16.3 µM (inactive) and 16.7 µM (inactive), the GI50 (NCI-H522) was 17.9 µM (inactive) and 18.1 µM (inactive) and the GI50 (NCI-H23) was 18.3 µM (inactive) and 16.5 µM (inactive). For the same molecule, the GI50 (OVCAR-5) was 17.1 µM (inactive), the GI50 (UACC-62) was 16.6 µM (inactive) and 16.8 µM (inactive) and the GI50 (MOLT-4) was 17.7 µM (inactive). The GI50 (SF-295) was 15.3 µM (inactive) and 16.8 µM (inactive), the GI50 (MDA-N) was 13.4 µM (inactive) and the GI50 (SNB-75) was 12.1 µM (inactive) and 12.2 µM (inactive). The GI50 (SK-MEL-5) was 17.4 µM (inactive), the GI50 (UO-31) was 15.5 µM (inactive) and 14.3 µM (inactive) and the GI50 (HL-60) was 15.7 µM (inactive) and 12.7 µM (inactive). The GI50 (Hs-578T) was 14.1 µM (inactive), the GI50 (A498) was 16.6 µM (inactive) and the GI50 (MDA-MB-231) was 12.9 µM (inactive). The GI50 (DLD-1) was 17.2 µM (inactive), the GI50 (SW-620) was 15.8 µM (inactive) and 17.2 µM (inactive) and the GI50 (T47D) was 14.6 µM (inactive). The GI50 (SR) was 18.1 µM (inactive) and 17.6 µM (inactive), the GI50 (KM-20L2) was 11.3 µM (inactive) and the GI50 (IGROV-1) was 15.9 µM (inactive) and 15.6 µM (inactive). For the same molecule, the GI50 (MDA-MB-435) was 15.8 µM (inactive), the GI50 (TK-10) was 17.4 µM (inactive) and 15.2 µM (inactive) and the GI50 (NCI-H460) was 16.4 µM (inactive) and 15 µM (inactive). The GI50 (PC-3) was 15.2 µM (inactive), the GI50 (Malme-3M) was 16.4 µM (inactive) and 14.9 µM (inactive) and the GI50 (HT-29) was 11.4 µM (inactive). For the same molecule, the GI50 (SK-OV-3) was 18.6 µM (inactive) and 16.6 µM (inactive), the GI50 (DU-145) was 17.2 µM (inactive) and the GI50 (ACHN) was 14.9 µM (inactive) and 15.4 µM (inactive). The GI50 (CCRF-CEM) was 20.3 µM (inactive) and 16.1 µM (inactive), the GI50 (LOX IMVI) was 15.5 µM (inactive) and 13.9 µM (inactive) and the GI50 (SN12C) was 16 µM (inactive) and 17.3 µM (inactive). For the same molecule, the GI50 (OVCAR-8) was 15.6 µM (inactive), the GI50 (SNB-78) was 15.7 µM (inactive) and the GI50 (DMS-273) was 14.7 µM (inactive). The GI50 (UACC-257) was 13.5 µM (inactive) and 15.3 µM (inactive), the GI50 (SNB-19) was 16.6 µM (inactive) and 15 µM (inactive) and the GI50 (HCT-116) was 14.2 µM (inactive) and 14.4 µM (inactive). For the same molecule, the GI50 (MCF7) was 16.1 µM (inactive), the GI50 (DMS-114) was 18.2 µM (inactive) and the GI50 (SK-MEL-2) was 16 µM (inactive). For the same molecule, the GI50 (EKVX) was 17.6 µM (inactive) and 15.7 µM (inactive), the GI50 (SK-MEL-28) was 16.3 µM (inactive) and 14.8 µM (inactive) and the GI50 (HCT-15) was 17.1 µM and 16.1 µM. The GI50 (LXFL 529) was 60 µM (inactive), the GI50 (BT-549) was 12.8 µM (inactive) and the GI50 (CAKI-1) was 11.8 µM (inactive). The GI50 (SF-268) was 14 µM (inactive) and 15 µM (inactive), the GI50 (U-251) was 14.2 µM (inactive) and 15.7 µM (inactive) and the GI50 (KM12) was 17.2 µM (inactive) and 15.1 µM (inactive). The GI50 (K562) was > 10 µM (inactive) and 13.8 µM (inactive), the GI50 (A549) was 17 µM (inactive) and 16.9 µM (inactive) and the GI50 (786-0) was 14.7 µM (inactive) and 14.1 µM (inactive). For the same molecule, the GI50 (RXF 393) was 13 µM (inactive) and 16 µM (inactive).
